How the values were obtained:
[1] = Cytotoxicity against human MT2 cells after 4 to 5 days by MTT assay; format: cell-based
[2] = Selectivity index, ratio of CC50 for human MT2 cells to EC50 for X4 tropic HIV1 3B infected in human MT2 cells; format: toxicity, cell-based; settings: read-out: Ratio CC50/EC50
[3] = test system: Human immunodeficiency virus 1; experiment: Antiviral activity against X4 tropic HIV1 3B infected in human MT2 cells assessed as protection against virus-induced cytopathic effect after 2 to 3 days by MTT assay; format: functional, organism-based; settings: Human immunodeficiency virus 1, 3B

Row | SMILES | CC50 [1] [mM] | selectivity ratio [2] | EC50 [3] [µM]
1 | CC(C)=C1CC[C@@]2(C)C/C=C(\C)CC/C=C(\C)CC[C@H]12 | 1.83 | 8.7 | 210
2 | CC(C)=C1C(=O)C[C@@]2(C)C[C@@H]3O[C@@]3(C)CC[C@@H]3O[C@@]3(C)CC[C@H]12 | 1.69 | 2320 | 0.73
3 | C=C1CC[C@@H]2C(=C(C)C)C(=O)C[C@@]2(C)C[C@@H](O)[C@](C)(O)CC[C@@H]1O | 0.92 | 236 | 3.9
4 | CC(C)=C1C(=O)C[C@@]2(C)C/C=C(\CO)CC/C=C(\C)CC[C@H]12 | 0.98 | 1420 | 0.69
5 | C[C@H]1/C=C/[C@@]2(C)CC[C@@H](C(C)(C)O)[C@@H]2[C@@H](O)C[C@@](C)(O)/C=C\C1 | 1.13 | 184 | 6.16
6 | CC(C)=C1C(=O)C[C@@]2(C)C/C=C(\C)CC/C=C(\C)CC[C@H]12 [DOLABELLANE] | 2.57 | 13.5 | 190
7 | Cc1ccnc2c1NC(=O)c1cccnc1N2C1CC1 [NEVIRAPINE] | 0.32 |  | 
